Data published in patent US7799799B2, “Indolizine derivatives, method for preparing same, and therapeutic compositions comprising same” (Sanofi-Aventis, priority 2005, dated 2010).
Counter-ions that a name gives are not always drawn.

Assay: Solubility test at pH=4 from phosphate buffer pH 6 0.1M, by HPLC
Format: physicochemical
Settings: for solubility at 5 min: aqueous buffer, thermodynamic from solid, phosphate buffer pH 6 0.1M, HPLC, first figure of the S/pH cell, the pH of the sample is the second; for pH (of the solubility sample): second figure of the S/pH cell, pH noted for the solubility sample
Experimental: The results for solubility, S, and pH are shown in the table below and are expressed in mg/ml.
A phosphate buffer, pH6, 0.1M, was prepared by adding 6.15 ml of 0.1M Na2HPO4 to 43.85 ml of 0.1M NaH2PO4. The solution was made up to 100 ml with filtered water using a Millipore system (trade mark).
Reference (Test Product in a Concentration in which the Latter is Soluble and which Acts as an Internal Reference)
About 0.2 mg (in a boat) was weighed out exactly and diluted in 1 ml of H2O/CH3CN: (50:50), i.e. 0.2 mg/ml, then the sample was subjected to ultrasound for 5 minutes.
About 4 mg (in a boat) was weighed out exactly and diluted in 400 μl (i.e. 10 mg/ml) of pH6 phosphate buffer (0.1M), then the sample was subjected to ultrasound for 5 minutes.
The pH was noted and if the pH was below 4, 1 μl of NaOH 1N was added (from 1 μl in 1 μl) until the pH was more than 4, then the pH was noted again. The solution (0.45 μm) was filtered then if necessary diluted with the phosphate buffer pH6. (If the product re-precipitated after diluting, the diluted sample was ignored, the mother solution was used and the solubility was determined at a wavelength other than λmax, to avoid saturating the signal.
The solubility of the compound was then determined by HPLC under the following conditions:
Instrument: Agilent 1100 chromatograph
Column temperature: 30° C. Flow rate: 0.8 ml/min Detection: λ=230 nm Injection volume: 5 μl

SMILES | solubility at 5 min [µg/mL] | pH (of the solubility sample)
CCCCc1cc2ccc(CC)cn2c1C(=O)c1ccc(CCCN(CCC)CCC)cc1 [compound 44, (2-butyl-6-ethylindolizin-3-yl){4-[3-(dipropylamino)propyl]phenyl}methanone hydrochloride] | > 10000 | 6.05
CCCCN(CCCC)CCCc1ccc(C(=O)c2c(CC)cc3ccccn23)cc1 [compound 18, {4-[3-(dibutylamino)propyl]phenyl}(2-ethylindolizin-3-yl)methanone hydrochloride] | 6510 | 5.42
CCCCN(CCCC)CCCCc1ccc(C(=O)c2c(CCC)cc3ccccn23)cc1 [compound 22, {4-[4-(dibutylamino)butyl]phenyl}(2-propylindolizin-3-yl)methanone oxalate] | 4080 | 4.58
CCCCc1cc2ccccn2c1C(=O)c1ccc(CCCCN(CCCC)CCCC)cc1 [compound 20, (2-butylindolizin-3-yl){4-[4-(dibutylamino)butyl]phenyl}methanone oxalate] | 2950 | 4.02
CCCN(CCC)CCCc1ccc(C(=O)c2c(C)cc3ccccn23)cc1 [compound 13, {4-[3-(dipropylamino)propyl]phenyl}(2-methylindolizin-3-yl)methanone hydrochloride] | 1610 | 7.2
CCCCN(CCCC)CCCCc1ccc(C(=O)c2c(CC)cc3ccccn23)cc1 [compound 21, {4-[4-(dibutylamino)butyl]phenyl}(2-ethylindolizin-3-yl)methanone oxalate] | 6900 | 4.08
CCCCc1cc2ccccn2c1C(=O)c1ccc(CCCCN(CCC)CCC)cc1 [compound 10, (2-butylindolizin-3-yl){4-[4-(dipropylamino)butyl]phenyl}methanone hydrochloride] | > 10000 | 5.81
CCc1cc2ccccn2c1C(=O)c1ccc(CCCN(CC)CC)cc1.O=C(O)C(=O)O [compound 2, (2-ethylindolizin-3-yl){4-[3-(diethylamino)propyl]phenyl}methanone oxalate] | 7470 | 4.07
CCCN(CCC)CCCc1ccc(C(=O)c2c(CC)cc3ccccn23)cc1 [compound 8, {4-[3-(dipropylamino)propyl]phenyl}(2-ethylindolizin-3-yl)methanone hydrochloride] | 8600 | 5.82
CCCc1cc2ccccn2c1C(=O)c1ccc(CCCN(CC)CCC)cc1 [compound 29, (4-{3-[ethyl(propyl)amino]propyl}phenyl)(2-propylindolizin-3-yl)methanone hydrochloride] | > 10000 | 5.94
CCCN(CC)CCCCc1ccc(C(=O)c2c(C(C)C)cc3ccccn23)cc1 [compound 27, (4-{4-[ethyl(propyl)amino]butyl}phenyl)(2-isopropylindolizin-3-yl)methanone oxalate] | 2170 | 6.5
CCCCc1cc2ccc(C)cn2c1C(=O)c1ccc(CCCN(CCC)CCC)cc1 [compound 43, (2-butyl-6-methylindolizin-3-yl){4-[3-(dipropylamino)propyl]phenyl}methanone hydrochloride] | 4460 | 5.65
CCCN(CCC)CCCCc1ccc(C(=O)c2c(CC)cc3ccccn23)cc1 [compound 11, {4-[4-(dipropylamino)butyl]phenyl}(2-ethylindolizin-3-yl)methanone hydrochloride] | > 10000 | 5.82
CCCCc1cc2ccccn2c1C(=O)c1ccc(CCCNCCC)cc1.Cl [compound 37, (2-butylindolizin-3-yl){4-[3-(propylamino)propyl]phenyl}methanone hydrochloride] | 1780 | 7.14
CCCN(CC)CCCCc1ccc(C(=O)c2c(C)cc3ccccn23)cc1 [compound 28, (4-{4-[ethyl(propyl)amino]butyl}phenyl)(2-methylindolizin-3-yl)methanone hydrochloride] | 1540 | 7.01
CCCN(CC)CCCc1ccc(C(=O)c2c(C(C)C)cc3ccccn23)cc1 [compound 25, (4-{3-[ethyl(propyl)amino]propyl}phenyl)(2-isopropylindolizin-3-yl)methanone hydrochloride] | 1710 | 6.4

SMILES | solubility at 5 min [µg/mL] | pH (of the solubility sample)
CCCc1cc2ccccn2c1C(=O)c1ccc(CCCN(CCC)CCC)cc1 [compound 9, {4-[3-(dipropylamino)propyl]phenyl}(2-propylindolizin-3-yl)methanone hydrochloride] | 5290 | 5.82
CCCCc1cc2ccccn2c1C(=O)c1ccc(CCCN(CC)CCC)cc1 [compound 23, (2-butylindolizin-3-yl)(4-{3-[ethyl(propyl)amino]propyl}phenyl)methanone hydrochloride] | > 10000 | 6.06
CCCCc1cc2ccccn2c1C(=O)c1ccc(CCCN(CCOC)CCOC)cc1 [compound 41, (4-{3-[bis(2-methoxyethyl)amino]propyl}phenyl)(2-butylindolizin-3-yl)methanone oxalate] | 7190 | 3.95
CCCNCCCCc1ccc(C(=O)c2c(CCC)cc3ccccn23)cc1.Cl [compound 36, {4-[4-(propylamino)butyl]phenyl}(2-propylindolizin-3-yl)methanone hydrochloride] | 2240 | 6.3
CCCCc1cc2ccccn2c1C(=O)c1ccc(CCCN(C)C)cc1.Cl [compound 38, (2-butylindolizin-3-yl){4-[3-(dimethylamino)propyl]phenyl}methanone hydrochloride] | 1420 | –
CCCCc1cc2ccccn2c1C(=O)c1ccc(CCCN(CCC)CCCC)cc1 [compound 33, (2-butylindolizin-3-yl)(4-{3-[butyl(propyl)amino]propyl}phenyl)methanone oxalate] | 3880 | 5.36
CCCN(CCC)CCCCc1ccc(C(=O)c2c(C(C)C)cc3ccccn23)cc1 [compound 14, {4-[4-(dipropylamino)butyl]phenyl}(2-isopropylindolizin-3-yl)methanone oxalate] | 2330 | 4.10
CCCCc1cc2ccccn2c1C(=O)c1ccc(CCCN2C[C@@H](C)N[C@@H](C)C2)cc1 [compound 39, (2-butylindolizin-3-yl)(4-{3-[(3R,5S)-3,5-dimethylpiperazin-1-yl]propyl}phenyl)methanone hydrochloride] | > 10000 | 4.22
CCCc1cc2ccccn2c1C(=O)c1ccc(CCCCN(CC)CC)cc1.Cl [compound 6, {4-[4-(diethylamino)butyl]phenyl}(2-propylindolizin-3-yl)methanone hydrochloride] | > 10000 | 5.79
CCCc1cc2ccccn2c1C(=O)c1ccc(CCCCN(CCC)CCC)cc1 [compound 16, {4-[4-(dipropylamino)butyl]phenyl}(2-propylindolizin-3-yl)methanone hydrochloride] | > 10000 | 5.81
CCCN(CC)CCCCc1ccc(C(=O)c2c(CC)cc3ccccn23)cc1 [compound 31, (2-ethylindolizin-3-yl)(4-{4-[ethyl(propyl)amino]butyl}phenyl)methanone oxalate] | > 10000 | 4.05
CCCCc1cc2ccccn2c1C(=O)c1ccc(CCCCN(CC)CCC)cc1 [compound 30, (2-butylindolizin-3-yl)(4-{4-[ethyl(propyl)amino]butyl}phenyl)methanone hydrochloride] | > 10000 | 5.85
CCCCc1cc2ccccn2c1C(=O)c1ccc(CCCN(CCC)CC2CC2)cc1 [compound 35, (2-butylindolizin-3-yl)(4-{3-[(cyclopropylmethyl)(propyl)amino]propyl}phenyl)methanone hydrochloride] | 4400 | 4.75
CCCCc1cc2ccccn2c1C(=O)c1ccc(CCCN(CC)CC)cc1.Cl [compound 1, (2-butylindolizin-3-yl){4-[3-(diethylamino)propyl]phenyl}methanone hydrochloride] | 8810 | 5.4
CCCN(CCC)CCCCc1ccc(C(=O)c2c(C)cc3ccccn23)cc1 [compound 15, {4-[4-(dipropylamino)butyl]phenyl}(2-methylindolizin-3-yl)methanone hydrochloride] | 1560 | 6.33
CCc1cc2ccccn2c1C(=O)c1ccc(CCCCN(CC)CC)cc1.O=C(O)C(=O)O [compound 5, {4-[4-(diethylamino)butyl]phenyl}(2-ethylindolizin-3-yl)methanone oxalate] | > 10000 | 3.96
